The values below are quoted from earlier work in publication PMC12307812 (Nature Communications, 2025).

The structures appear in SMILES notation.

The subject of this series is TMPRSS2. More on the design: method as in earlier work. Conditions: top 50 compounds by AUC, Figure 2 source data; cited from earlier work.
As for `Nc1nc2ccc(OC(F)(F)F)cc2s1` [NCGC00015882-15], the “max response (%)” value was -16.2214%.

With `CN(C/C=C/c1ccccc1)Cc1cccc2ccccc12.Cl` [NCGC00179332-03], the “max response (%)” value is listed as -15.3589%.

On to `CN(C)C(=O)COC(=O)Cc1ccc(OC(=O)c2ccc(N=C(N)N)cc2)cc1.CS(=O)(=O)O` [NCGC00167526-02], for which the “max response (%)” value was -95.3053%.

Consider `CCOC(=O)c1ccc(OC(=O)CCCCCN=C(N)N)cc1.CS(=O)(=O)O` [NCGC00025297-04], for which the “max response (%)” value is -83.626%.

For `COc1cc(N)c(Cl)cc1C(=O)NC1CCN(Cc2ccccc2)CC1` [NCGC00016951-05], the “max response (%)” value is recorded as -0.1908%.

`C=C1CC[C@H](O)C/C1=C\C=C1/CCC[C@]2(C)[C@@H]([C@H](C)/C=C/[C@H](C)C(C)C)CC[C@@H]12` [NCGC00166307-05]: the “max response (%)” value is reported as -20.0382%.

With `N=C(N)c1ccc(/C=C/c2ccc(C(=N)N)cc2O)cc1` [NCGC00166289-02], the “max response (%)” value is recorded as -82.5214%.

For the molecule `C=CC[C@@H]1/C=C(\C)C[C@H](C)C[C@H](OC)[C@H]2O[C@@](O)(C(=O)C(=O)N3CCCC[C@H]3C(=O)O[C@H](/C(C)=C/[C@@H]3CC[C@@H](O)[C@H](OC)C3)[C@H](C)[C@@H](O)CC1=O)[C@H](C)C[C@@H]2OC` [NCGC00163470-27], the “max response (%)” value is -28.9699%.

Consider `CC1(C)O[C@@H]2C[C@H]3[C@@H]4CCC5=CC(=O)C=C[C@]5(C)[C@@]4(F)[C@@H](O)C[C@]3(C)[C@]2(C(=O)CO)O1` [NCGC00023193-06], for which the “max response (%)” value is recorded as -22.5573%.

`CCC(=O)c1ccc2c(c1)N(CCCN(C)C)c1ccccc1S2.Cl` [NCGC00015838-06]: the “max response (%)” value is reported as -16.7557%.

With `COc1ccc(CN2CCNCC2)c(OC)c1OC` [NCGC00016697-04], the “max response (%)” value is -13.9313%.

As to `N=C(N)c1ccc(OCCCCCOc2ccc(C(=N)N)cc2)cc1` [NCGC00179034-07], the “max response (%)” value is on record as -64.313%.

`CCOC(=O)COc1ccc2c(=O)cc(-c3ccccc3)oc2c1` [NCGC00182622-03]: the “max response (%)” value is listed as -10.6731%.

Take `Cl.NCC1CCC(C(=O)Oc2ccc(CCC(=O)O)cc2)CC1` (stereo not shown) [NCGC00164584-03]: the “max response (%)” value is -89.9618%.

`C=C1C(=O)O[C@@H]2[C@H]3O[C@]3(C)CC/C=C(/C)CC[C@@H]12` [NCGC00024683-23]: the “max response (%)” value was -10.5725%.

Take `CC(C)N(CCC(C(N)=O)(c1ccccc1)c1ccccn1)C(C)C` (stereo not shown) [NCGC00015358-18]: the “max response (%)” value was -7.9771%.
